US11951155B2, “Pea-derived peptide with muscle-building effect and preparation method thereof, and drug and use” (Zhongshi Duqing(Shandong) Biotech Co., Ltd, priority 2022, dated 2024)
“And” between values parts separate entries of the source, which are not always exact repeats. Equal values may be shown once. Ends that are not written are not given here.

How the values were obtained:
[1] = system: IGF-1R, cyclinD1, CDK6, p-AMPK in C2C12 cells; experiment: Western blot of growth and proliferation-related proteins in C2C12 cells; assay type: cell-based; details: skeletal muscle cells treated with one peptide alone
Text: The C2C12 cells in a logarithmic growth phase were inoculated into a 6-well plate at 1×10^6; the cells were divided into 6 groups, namely a blank control group (CN), and sample groups including a pea-derived peptide PP1 group (PP1), a pea-derived peptide PP2 group (PP2), a pea-derived peptide PP3 group (PP3), a pea-derived peptide PP4 group (PP4), and a pea-derived peptide PP5 group (PP5). Each treatment group was set to duplicate 3 wells, with approximately 1,000,000 cells per well; a sample having a concentration of 0.4 μg/ml was added to the cells of the sample groups, and each treatment group was set to 3 duplicate wells. After co-incubating for 24 h, the cells in different treatment groups were collected, fully lysed, and a total protein was extracted, and a protein concentration was determined using a nucleic acid protein analyzer. The protein sample was mixed with a loading buffer thoroughly, denatured at 100° C. for 10 min, and subjected to SDS-PAGE gel electrophoresis. The program included: 80 V for 30 min; 100 V for 80 min. Membrane transfer was conducted, where the membrane transfer procedure was conducted at 100 V for 90 min. After transferring, the sample was placed in a 5% skimmed milk powder, and sealed in a shaker at room temperature for 1 h. GAPDH antibody (1:2000) and PCNA antibody, AMPK antibody, p-AMPK antibody, IGF-1 antibody (1:1000) were added separately, and allowed to stand at 4° C. overnight. A secondary antibody (1:20000) was added, and incubated at room temperature for 1 h. The membrane was washed 3 times with TBST, and a Pierce-enhanced luminescent agent was added, and exposure was conducted by an automatic exposure machine.

C2C12 cells = experiment: C2C12 cell proliferation assay (CCK-8, OD at 450 nm); assay type: cell-based; details: for cell concentration compared with CN group: co-incubated 48 h, 0.4 μg/ml; for OD value, Average value / OD value, Repeated three groups: sample 0.4 μg/ml, OD 450 nm; for OD value, Repeated three groups: single replicates
Description: The C2C12 cells in a logarithmic growth phase were inoculated into a 96-well plate; the cells were divided into 4 groups, namely a blank control group (CN, without any peptide fractions), a pea-derived peptide S1 group, a pea-derived peptide S2 group, and a pea-derived peptide S3 group; each treatment group was set to duplicate 3 wells, with approximately 1,000 cells per well. Except for the blank control group, 0.4 μg/ml pea-derived peptide was added to the cells, and 10 μL of a CCK-8 solution was added separately at 0 h, 12 h, 24 h, 36 h, and 48 h, and mixed well; the cells were incubated in a CO2 incubator at 37° C. for 2 h, an OD value was measured using a microplate reader at 450 nm, and a cell proliferation curve was drawn.
The C2C12 cells in a logarithmic growth phase were inoculated into a 96-well plate; the cells were divided into 6 groups, namely a blank control group (CN, without any peptide fractions), and sample groups including a pea-derived peptide PP1 group (PP1), a pea-derived peptide PP2 group (PP2), a pea-derived peptide PP3 group (PP3), a pea-derived peptide PP4 group (PP4), and a pea-derived peptide PP5 group (PP5). Each treatment group was set to 3 duplicate wells, with approximately 1,000 cells per well. A sample having a concentration of 0.4 μg/ml was added to the cells of the sample groups, and 10 μL of a CCK-8 solution was added separately at 0 h, 12 h, 24 h, 36 h, and 48 h, and mixed well; the cells were incubated in a CO2 incubator at 37° C. for 2 h, an OD value was measured using a microplate reader at 450 nm, and a cell proliferation curve was drawn.

pepsin and trypsin = experiment: In vitro digestion test with pepsin and trypsin; assay type: in vitro ADME; details: 500 mg/L; pepsin 20 mg/g pH 2.0 37° C. 90 min, then trypsin 40 mg/g pH 7.5 37° C. 150 min; HPLC or LC-MS
Description: A pea-derived peptide aqueous solution and a pea-derived peptide PP2 aqueous solution with a mass concentration of 500 mg/L were prepared separately, pepsin (20 mg/g) was added, a pH value was adjusted to 2.0, and the two aqueous solutions were treated in a water bath at a constant temperature of 37° C. for 90 min. Following the water bath, the pH value was adjusted to 7.5, trypsin (40 mg/g) was added, and the two aqueous solutions were treated in the water bath at a constant temperature of 37° C. for 150 min. Following the water bath, the two solutions were placed in a 95° C. water bath for 5 min to inactivate the enzyme. The samples were freeze-dried and analyzed by HPLC to compare changes in the liquid chromatograms before and after digestion. Also provided were undigested pea-derived peptide and pea-derived peptide digested only by pepsin but not by trypsin.
Pea-derived peptide PP2 was digested in vitro according to the method of Example 4.

Row | Substance | expression of IGF-1R, cyclinD1, CDK6 and p-AMPK [1] | cell concentration compared with CN group (C2C12 cells) | OD value, Average value (C2C12 cells; treatment time 0 h) | OD value, Repeated three groups (C2C12 cells; treatment time 0 h) | OD value, Average value (C2C12 cells; treatment time 12 h) | OD value, Repeated three groups (C2C12 cells; treatment time 12 h) | OD value, Average value (C2C12 cells; treatment time 24 h) | OD value, Repeated three groups (C2C12 cells; treatment time 24 h) | OD value, Average value (C2C12 cells; treatment time 36 h) | OD value, Repeated three groups (C2C12 cells; treatment time 36 h) | OD value, Average value (C2C12 cells; treatment time 48 h) | OD value, Repeated three groups (C2C12 cells; treatment time 48 h) | stability after digestion by pepsin and trypsin (pepsin and trypsin)
1 | TNYEEIEKVLL | significantly increase expression | increases significantly | 0.33 | 0.41 and 0.37 and 0.22 | 0.56 | 0.54 and 0.45 and 0.68 | 1.33 | 1.31 and 1.06 and 1.62 | 1.86 | 2.03 and 1.67 and 1.89 | 2.09 | 1.87 and 2.11 and 2.28 | –
2 | LLYVIR | significantly increase expression | increases significantly | 0.38 | 0.36 and 0.52 and 0.27 | 0.50 | 0.42 and 0.51 and 0.56 | 1.34 | 1.08 and 1.62 and 1.32 | 1.84 | 1.95 and 1.83 and 1.74 | 2.11 | 2.07 and 2.32 and 1.95 | –
3 | EGSLLLPH | significantly increase expression | increases significantly | 0.35 | 0.28 and 0.35 and 0.41 | 0.53 | 0.52 and 0.66 and 0.42 | 1.26 | 1.24 and 1.07 and 1.48 | 1.73 | 1.77 and 1.62 and 1.81 | 1.95 | 1.96 and 1.78 and 2.10 | –
4 | LDLPVL [PP2, Leu-Asp-Leu-Pro-Val-Leu] | – | – | – | – | – | – | – | – | – | – | – | – | not digested and degraded by the pepsin and trypsin
5 | NTNYEEIEKVL | significantly increase expression | increases significantly | 0.36 | 0.44 and 0.27 and 0.36 | 0.557 | 0.43 and 0.53 and 0.71 | 1.42 | 1.41 and 1.66 and 1.19 | 1.88 | 1.72 and 2.06 and 1.86 | 2.12 | 1.98 and 2.32 and 2.05 | –
